In patent US20130236501A1, “Injectable Emulsion of Sedative Hypnotic Agent” (ASTRAZENECA AB, priority 2010, published 2013):
≈ marks a conversion by molar mass, not a printed value.

Assay: Water solubility of Compound A
Type: physicochemical
Experimental: Agents for sedation and anaesthesia are frequently administered by intravenous injection, a form of administration for which the agents need to be in a water-miscible form. Compound A, however, is an oleaginous compound with a water solubility of about 2 mg/ml. Such a compound is considered “slightly soluble” in the solubility definitions in General Notices 5.30 of the United States Pharmacopeia, USP33-NF28, published by the United States Pharmacopeial Convention Inc., Rockville, Md. In the case of Compound A, this solubility is not optimal for a therapeutically useful dose to be prepared simply by dissolution in water. The preparation of slightly soluble medicinal compounds for intravenous administration has been the subject of considerable investigation, but remains a significant challenge in the development of new therapeutic agents. Several drug delivery systems have been investigated for such compounds. In the present application, emulsions, in which droplets of oil, in which the drug is itself dissolved, are dispersed in an aqueous medium with the aid of an emulsifier and other suitable excipients and processing. A similar method is used for the commercial formulation of propofol, (2,6-diisopropyl-phenol), which is commercially available as Diprivan® Injectable Emulsion at concentrations of 1% and 2%. Oil-in-water emulsions comprising propofol are described in WO 96/29064.

## CCCOC(=O)Cc1ccc(OCC(=O)N(CC)CC)c(OCC)c1 [Compound A, [3-ethoxy-4-[(N,N-diethylcarbamido)methoxy]phenyl]acetic acid n-propyl ester]
  solubility: ~2000 µg/mL (≈ 5.69 mM)
